Data taken from patent publication US10052330B2, “Substituted pyrido[3,4-b]pyrazines as Syk inhibitors” (HUTCHISON MEDIPHARMA LIMITED, priority 2011, dated 2018).
Like-named read-outs stand apart in the source and are kept apart here.

Tests used:
Syk kinase = Syk kinase (Homo sapiens, UniProt P43405); test: Syk kinase enzymatic assay (Kit-Tyr 2 Peptide); assay type: biochemical; conditions: 8 concentrations, 1 μM down to 0.0003 μM; upper bound of each range is 'less than'; read-out: IC50: Enzymatic Activity (Syk kinase)
RBL-2H3 cells = test: IgE-induced Beta-hexosaminidase secretion in RBL-2H3 cells; assay type: cell-based; conditions: Rattus norvegicus
[1] = RBL-2H3, RBL-2H3 cells sensitized with SPE-7, stimulated with DNP-BSA, upper bound of each range is 'less than', read-out: IC50, IgE-induced Beta-hexosaminidase secretion

Row | Structure (SMILES) | IC50 (Syk kinase) [µM] | IC50 (RBL-2H3 cells; [1]) [µM] | IC50 (RBL-2H3 cells; RBL-2H3, read-out: IC50, IgE-induced Beta-hexosaminidase secretion) [µM]
1 | Cn1cc(-c2cc3nccnc3c(NCC3CCCNC3)n2)cn1 (stereo not drawn) [Compound 18] | 0.1 to 1 |  | 0.1 to 1
2 | CC(C)(O)[C@@H]1CCN(c2nc(-c3ccc(N4CCOCC4)cc3)cc3nccnc23)C1 [Compound 170] |  | 0.1 to 1 | 
3 | OCC1(CNc2nc(-c3ccc(N4CCOCC4)cc3)cc3nccnc23)COC1 [Compound 171] |  | 0.1 to 1 | 
4 | N#CCCNc1nc(-c2ccc(N3CCOCC3)cc2)cc2nccnc12 [Compound 187] |  | 0.1 to 1 | 
5 | FC(F)CNc1nc(-c2ccc(N3CCOCC3)cc2)cc2nccnc12 [Compound 197] |  | 0.1 to 1 | 
6 | FC(F)(F)C1CCC(CNc2nc(-c3ccc(N4CCOCC4)cc3)cc3nccnc23)CN1 (stereo not drawn) [Compound 199] |  | 0.1 to 1 | 
7 | COc1ccc(-c2cc3nccnc3c(NC[C@@H]3CN(C(=O)C(F)F)CCO3)n2)cc1OC [Compound 454] | 0.1 to 1 |  | 
8 | CNc1ccc(-c2cc3nccnc3c(NC[C@@H]3CN(C(=O)C(F)F)CCO3)n2)cc1F [Compound 457] | 0.1 to 1 |  | 
9 | CNC(=O)COc1ccc(-c2cc3nccnc3c(NC[C@@H]3CN(C(=O)C(F)F)CCO3)n2)cc1 [Compound 461] | 0.1 to 1 |  | 
10 | CCN(CC)c1ccc(-c2cc3nccnc3c(NC[C@@H]3CN(C(=O)C(F)F)CCO3)n2)cc1 [Compound 471] | 0.1 to 1 |  | 
11 | CN(CCO)c1ccc(-c2cc3nccnc3c(NC[C@@H]3CNCCO3)n2)cc1 [Compound 472, (S)-2-(methyl(4-(5-(morpholin-2-ylmethylamino)pyrido[4,3-b]pyrazin-7-yl)phenyl)amino)ethanol] | 0.1 to 1 |  | 
12 | CS(=O)(=O)CCOc1ccc(-c2cc3nccnc3c(NC[C@@H]3CNCCO3)n2)cc1 [Compound 478, (S)-7-(4-(2-(methylsulfonyl)ethoxy)phenyl)-N-(morpholin-2-ylmethyl)pyrido[4,3-b]pyrazin-5-amine] | 0.1 to 1 |  | 
13 | O=S1(=O)CCNCC1CNc1nc(-c2ccc(N3CCOCC3)c(F)c2)cc2nccnc12 (stereo not drawn) [Compound 483] | 0.1 to 1 |  | 
14 | CN1CCN(c2ccc(-c3cc4nccnc4c(NCC4CNCCS4(=O)=O)n3)cc2)CC1 (stereo not drawn) [Compound 484] | 0.1 to 1 |  | 
15 | CC(=O)N1CCN(c2ccc(-c3cc4nccnc4c(NC[C@@H]4CN(S(C)(=O)=O)CCO4)n3)cc2)CC1 [Compound 491] | 0.1 to 1 |  | 
16 | CS(=O)(=O)N1CCN(c2ccc(-c3cc4nccnc4c(NC[C@@H]4CN(S(C)(=O)=O)CCO4)n3)cc2)CC1 [Compound 492] | 0.1 to 1 |  | 
17 | CS(=O)(=O)N1CCC(c2ccc(-c3cc4nccnc4c(NC[C@@H]4CN(O)CCO4)n3)cc2)CC1 [Compound 496, (R)-2-((7-(4-(1-(methylsulfonyl)piperidin-4-yl)phenyl)pyrido[4,3-b]pyrazin-5-ylamino)methyl)morpholin-4-ol] | 0.1 to 1 |  | 
18 | CS(=O)(=O)N1CCC(c2ccc(-c3cc4nccnc4c(NCC(O)CN)n3)cc2)CC1 (stereo not drawn) [Compound 509] | 0.1 to 1 |  | 

Further lines, with some results ahead:

Row | IC50 (Syk kinase) [µM] | Structure (SMILES) | IC50 (RBL-2H3 cells; [1]) [µM] | IC50 (RBL-2H3 cells; RBL-2H3, read-out: IC50, IgE-induced Beta-hexosaminidase secretion) [µM]
19 | 0.1 to 1 | CC1CN(c2ccc(-c3cc4nccnc4c(NC[C@@H]4CNCCO4)n3)cc2F)CCO1 (mixture of isomers) [Compound 250] | 0.001 to 0.1 | 
20 | 0.001 to 0.1 | CC1CN(c2ccc(-c3cc4nccnc4c(NCC4CNCCC4(F)F)n3)cc2)CCO1 (single isomer, unassigned) [Compound 308] | 0.001 to 0.1 | 
21 | 0.001 to 0.1 | FC1(CNc2nc(-c3ccc(N4CCOCC4)cc3)cc3nccnc23)CCCNC1 (single isomer, unassigned) [Compound 377] | 0.001 to 0.1 | 
22 | 0.001 to 0.1 | Fc1cc(-c2cc3nccnc3c(NCC3(F)CCCNC3)n2)ccc1N1CCOCC1 (single isomer, unassigned) [Compound 382] | 0.001 to 0.1 | 
23 | 0.001 to 0.1 | C[C@H]1CN(c2ccc(-c3cc4nccnc4c(NCC4CNCCC4(F)F)n3)cc2)CCO1 (single isomer, unassigned) [Compound 396] | 0.001 to 0.1 | 
24 | 0.001 to 0.1 | CN1CCN(c2ccc(-c3cc4nccnc4c(NCC4CN(S(C)(=O)=O)CCO4)n3)cc2)CC1 (stereo in doubt) [Compound 486, (S)-7-(4-(4-methylpiperazin-1-yl)phenyl)-N-((4-(methylsulfonyl)morpholin-2-yl)methyl)pyrido[4,3-b]pyrazin-5-amine] | 0.001 to 0.1 | 
25 | 0.1 to 1 | CN(CCCN)c1nc(-c2ccc(N3CCOCC3)cc2)cc2nccnc12 [Compound 4] | 0.1 to 1 | 
26 | 0.1 to 1 | CN(C)c1cccc(-c2cc3nccnc3c(NCC3CCCNC3)n2)c1 (stereo not drawn) [Compound 13] | 0.1 to 1 | 
27 | 0.1 to 1 | COc1cc(OC)cc(-c2cc3nccnc3c(NCC3CCCNC3)n2)c1 (stereo not drawn) [Compound 15] | 0.1 to 1 | 
28 | 0.1 to 1 | COc1cccc(-c2cc3nccnc3c(NCC3CCCNC3)n2)c1 (stereo not drawn) [Compound 17] | 0.1 to 1 | 
29 | 0.001 to 0.1 | COc1ccc(-c2cc3nccnc3c(NCC3CCCNC3)n2)cc1F (stereo not drawn) [Compound 19] | 0.001 to 0.1 | 
30 | 0.001 to 0.1 | CN(C)c1ccc(-c2cc3nccnc3c(NC[C@H]3CCCNC3)n2)cc1 [Compound 21] | 0.001 to 0.1 | 
31 | 0.001 to 0.1 | Cc1ccc(-c2cc3nccnc3c(NCC3CCCNC3)n2)cc1 (stereo not drawn) [Compound 22] | 0.001 to 0.1 | 
32 | 0.1 to 1 | Fc1ccc(-c2cc3nccnc3c(NCC3CCCNC3)n2)cc1 (stereo not drawn) [Compound 23] | 0.1 to 1 | 
33 | 0.1 to 1 | Fc1cc(-c2cc3nccnc3c(NC[C@H]3CNCCC3(F)F)n2)ccc1N1CCOCC1 [Compound 369, (R)—N-((4,4-difluoropiperidin-3-yl)methyl)-7-(3-fluoro-4-morpholinophenyl)pyrido[4,3-b]pyrazin-5-amine] |  | 
34 | 0.1 to 1 | FC1(F)CCNC[C@@H]1CNc1nc(-c2ccc(N3CCOCC3)nc2)cc2nccnc12 [Compound 375, (R)—N-((4,4-difluoropiperidin-3-yl)methyl)-7-(6-morpholinopyridin-3-yl)pyrido[4,3-b]pyrazin-5-amine] |  | 
35 | 0.1 to 1 | F[C@]1(CNc2nc(-c3ccc(N4CCOCC4)nc3)cc3nccnc23)CCCNC1 [Compound 379, (R)—N-((3-fluoropiperidin-3-yl)methyl)-7-(6-morpholinopyridin-3-yl)pyrido[4,3-b]pyrazin-5-amine] |  | 
36 | 0.1 to 1 | CS(=O)(=O)c1ccc(-c2cc3nccnc3c(NC[C@H]3CNCCC3(F)F)n2)cc1 [Compound 391, (R)—N-((4,4-difluoropiperidin-3-yl)methyl)-7-(4-(methylsulfonyl)phenyl)pyrido[4,3-b]pyrazin-5-amine] |  | 
37 | 0.001 to 0.1 | NC(=O)CCC(=O)N1CCN(c2ccc(-c3cc4nccnc4c(NCC4CNCCO4)n3)cc2)CC1 (stereo not drawn) [Compound 422] |  | 
38 | 0.001 to 0.1 | CS(=O)(=O)N1CCC(n2cc(-c3cc4nccnc4c(NC[C@@H]4CNCCO4)n3)cn2)CC1 [Compound 431] |  | 
39 | 0.1 to 1 | O=C(C(F)F)N1CCO[C@H](CNc2nc(-c3ccc(N4CCOCC4)c(Cl)c3)cc3nccnc23)C1 [Compound 452] |  | 
40 | 0.1 to 1 | CNc1ccc(-c2cc3nccnc3c(NC[C@@H]3CN(C(=O)C(F)F)CCO3)n2)cc1 [Compound 453] |  | 
41 | 0.001 to 0.1 | CS(=O)(=O)N1CCO[C@H](CNc2nc(-c3ccc(C4CCNCC4)cc3)cc3nccnc23)C1 [Compound 459] |  | 
42 | 0.001 to 0.1 | CC[N+]1(CC)CCC(c2ccc(-c3cc4nccnc4c(NC[C@@H]4CN(C(=O)C(F)F)CCO4)n3)cc2)CC1 [Compound 480, (R)-4-(4-(5-((4-(2,2-difluoroacetyl)morpholin-2-yl)methylamino)pyrido[4,3-b]pyrazin-7-yl)phenyl)-1,1-diethylpiperidinium iodide] |  | 
